# Tests used:
# [1] = system: arachidonic acid ear oedema; assay: Arachidonic acid oedema in mouse ear; format: in vivo; details: mice, arachidonic acid 2 mg/ear; topical ointment 0.025 to 0.2% caryophyllene applied 60 minutes before
# Procedure: The ear oedema in the test below was measured according to Calixto et. al. in the publication Prostaglandins, 5: 515-526, 1991, with minor modifications. Male 25 g-35 g mice, in a first group, were topically applied, in the inner surface of the ears, an ointment comprising a range from 0.025 to 0.2% alpha-humulene or trans-caryophyllene. In the positive control group, the animals were topically applied 0.05 mg of phenidone per ear. After 60 minutes, the animals received 20 μl of arachidonic acid (2 mg/ear), dissolved in acetone, in the inner surface of the right ear. The oedema was measured using a digital micrometer, and the responses were expressed as μm, the difference between the ear thickness before and after the application of arachidonic acid. The responses of the animals treated with caryophyllenes were compared to those observed in the control group animals, treated with base ointment. Graphs 6A and 6B below compare the inhibition of the volume of the oedema by topic administration of alpha-humulene (6A) and trans-caryophyllene (6B). Oedema volume measurement was performed after application of 0.025%, 0.05%, 0.1, and 0.2% caryophyllene content ointment, compared to the oedema volume caused by the application of phenidone and arachidonic acid (C). Each point represents the average of 5 animals, and the vertical bars the mean standard error deviation.
# TNFα = assay: Levels of pro-inflammatory cytokine TNFα in carrageenin-injected rat paw (Elisa); format: in vivo; details: 50 mg/kg orally 60 minutes before carrageenin 300 μg/paw, tissue after 180 minutes
# Procedure: The test used below is described by Campos et. al. in the publication Br. J. Pharmacol. 135: 1107-1114, 2002, with minor modifications.
# (§1) Male 60-180 g rats were orally given 50 mg/kg of trans-caryophyllene. Animals treated with 0.9% (0.1 ml/10 g) saline were used as control. Another group of animals was treated with 0.5 mg/kg dexamethasone, subcutaneously, 4 hours before the test, and used as positive control. After 60 minutes, the animals received intraplantar injections of 100 μl of carrageenin (300 μg/paw) and were sacrificed after 180 minutes. Control animals received saline. The subcutaneous tissue of the injected paws was removed and put in a phosphate buffer containing 0.5% tween 20, 0.1 mM benzametonium chloride, 10 mM EDTA, 2 μg/m aprotinin, 0.1 mM PMSF (phenyl methyl sulfonyl fluoride) and 0.5% BSA (bovine serum albumin). The tissues were homogenized and centrifuged at 3000 g, for 10 min, at −4° C. The supernatant was used in the test. The levels of TNFαwere measures with an Elisa kit, according to the manufacturer's instructions (R & D Systems®, USA). The tests were performed in duplicate, and repeated three times. The answers are expressed in pg/mg of tissue. […]
# IL-1β = assay: Levels of pro-inflammatory cytokine IL-1β in carrageenin-injected rat paw (Elisa); format: in vivo; details: 50 mg/kg orally 60 minutes before carrageenin 300 μg/paw, tissue after 180 minutes
# Procedure: as §1, with “The test used below is described by Campos et. al. in the publication Br. J. Pharmacol. 135: 1107-1114, 2002, with minor modifications. Male” for “Male”, “160-180” for “60-180”, “alpha-humulene.” for “trans-caryophyllene.”, “IL-1β were” for “TNFαwere”
# histamine-induced oedema = assay: Histamine oedema in mouse paw; format: in vivo; details: mice, histamine 100 nmol/paw intraplantar; 50 mg/kg orally 1 h before; 10 min to 48 h
# Procedure: The test used below is described by Cunha et. al. in the publication Life Sci. 70:159-169, 2001. Male 25 g-35 g mice were slightly sedated with ether and were injected 50 μl saline containing histamine (100 nmol/paw), intraplantar, in the right paw. The left paw received the same volume of saline and was taken as negative control. The swelling was measured with a plethysmometer (manufacturer: Ugo Basile, Italy) along various time intervals after the injection of the phlogistic agent. The difference between the volumes of the right and the left paw were quantified (in ml) and taken as an index of oedema. One hour before the test the animals were systemically treated (orally) with 50 mg/kg of alpha-humulene. Graph 4 below compares the inhibition of the volume of the oedema by administration of alpha-humulene. Oedema volume measurement time intervals were 10, 20, 30, 60, and 120 min, 24 h and 48 h. Each point represents the average of 5 animals, and the vertical bars the mean standard deviation.
# [2] = reference: Carcinogenesis (2002), 23(5), 795-802; cited from earlier work
# iNOS = assay: Expression of enzyme iNOS in carrageenin-injected rat paw (Western blot); format: in vivo; details: 50 mg/kg orally 60 minutes before carrageenin 300 μg/paw, subcutaneous paw tissue
# Procedure: Animals treated with 0.9% (0.1 ml/10 g) saline were used as control. Another group of animals was treated with 0.5 mg/kg dexamethasone, subcutaneously, 4 hours before the test, and used as positive control. After 60 minutes, the animals received intraplantar injections of 100 μl of carrageenin (300 μg/paw) and were sacrificed after 180 minutes, and subcutaneous paw tissue was removed 240 minutes after the carrageenin injection. The collected tissue was immediately frozen in liquid nitrogen and re-suspended in a buffer of hypotonic lysis (10 mM HEPES N-2-hydroxyethylpiperazine-N'-2-ethanesulfonic acid, 1.5 mM MgCl2, 10 mM KCl, 0.5 mM PMSF phenylmethylsulphonyl fluoride, 1.5 μg/ml trypsin inhibitor, 7 μg/ml pepstatin A, 5 μg/ml leupeptin, 0.1 mM benzamidine 0.1 mM and 0.5 mM dithiothreitol) and homogenized. The homogenate was divided in three 2 ml aliquots, cooled in ice for 15 minutes, vigorously agitated and once again cooled in ice, in the presence of 20 μl 10% non-ionic detergent Nonidet P-40 (Roche Diagnostics, USA). […] The protein concentration was determined by the Bradford method (BioRad Laboratories Inc. kit, Milan, Italy). […] The bands thus obtained were quantified using a chemoluminescence kit and densitometry analysis (relative units) in radiographic films.
# [3] = system: carrageenin-induced paw oedema; assay: Carrageenin oedema in mouse paw; format: in vivo; details: mice, carrageenin intraplantar; alpha-humulene 50 mg/kg orally 1 h before; dexamethasone 0.5 mg/kg subcutaneously 4 h before; 30 min to 48 h
# Procedure: The test used below is described by Cunha et. al. in the publication Life Sci. 70:159-169, 2001. […] The left paw received the same volume of saline and was taken as a negative control. The swelling was measured with a plethysmometer (manufacturer: Ugo Basile, Italy) along various time intervals after the injection of the phlogistic agent. The difference between the volumes of the right and the left paw were quantified (in ml) and taken as an index of oedema. One hour before the test the animals were systemically treated (orally) with 50 mg/kg of alphahumulene or trans-caryophyllene. Graph 2 below compares the inhibition of the volume of the oedema by administration of either alpha-humulene or trans-caryophyllene with inhibition obtained with the administration of dexamethasone (0.5 mg/kg, injected subcutaneously 4 h before test) and used as positive control. Oedema volume measurement time point intervals were 30, 60, 120 and 240 min, 24 h and 48 h. Each point represents the average of 5 animals, and the vertical bars the mean standard error deviation.
smiles,measurement,setting,value
C=C1CC/C=C(\C)CC[C@@H]2[C@@H]1CC2(C)C [trans-caryophyllene],arachidonic acid ear oedema formation,[1],"markedly reduced oedema formation, in a dose-dependent manner"
same,production of pro-inflammatory cytokine TNFα induced by carrageenin in the paws of rats,TNFα,markedly inhibited the production
C/C1=C\CC/C(C)=C/CC(C)(C)/C=C/C1 [alpha-humulene],production of pro-inflammatory cytokine IL-1β induced by carrageenin in the paws of rats,IL-1β,markedly inhibited the production
same,histamine-induced oedema formation,histamine-induced oedema,significantly reduced histamine-induced oedema formation
same,anti-inflammatory or chemo-therapic effects,[2],virtually inactive
same,arachidonic acid ear oedema formation,[1],"markedly reduced oedema formation, in a dose-dependent manner"
same,expression of enzymes iNOS induced by carrageenin in the paws of rats,iNOS,markedly inhibited the expression
same,inflammatory volume (paw oedema volume),[3],reduced the inflammatory volume

# — US20080280996A1, “Use of Carophyllenes in the Manufacture of Medicaments and Treatment of Bodily Conditions of Inflammation and Inflammatory Pain” (priority 2004, published 2008)
